Two sequences from US7238669B2, “Phage-display peptides as novel antimicrobial agents against Haemophilus influenzae” (priority 2002, dated 2007) can be followed below.

Assay [1] has as its system NTHi. In words: Microscopic examination of cell membrane integrity. In kind it is cell-based, Haemophilus influenzae. As to conditions: microscopic results.
Assay [2] has as its system Enterococcus faecialis. In words: Binding to bacteria via ELISA. (ELISA stands for enzyme-linked immunosorbent assay.)
Assay [3] relates to Int-1 strain of NTHi. In words: Inhibition of Int-1 growth by phage-displayed peptides (overnight in sBHI broth, OD630 and colony counts). In kind it is cell-based, Haemophilus influenzae. As to conditions: for MIC concentration resulting in no bacterial growth: FIGS. 3A and 3B. As for the experimental part:
The next day, the optical densities of the bacterial cultures were evaluated by direct measurement of the optical densities at OD630 nm.
Int-1, a non-typeable clinical isolate, was isolated in 1991 from the blood of a child with clinical symptoms of meningitis. It is virulent in rat models and is able to survive in human serum. Kw20, a non-typeable strain, was isolated in 1954. R3001, a non-typeable clinical isolate, was isolated from a bronchial lavage of a cystic fibrosis patient. R2140, is a non-typeable clinical isolate. R538 is a Haemophilus influenzae type b ATCC strain No. 9795. E1a is a type b Haemophilus influenzae clinical isolate.

Assay [4] has as its system Enterococcus faecialis. In words: Growth of other bacterial species in presence of hi3/17. The following applies: FIG. 4. In kind it is cell-based. On the procedure: (§1) (Salmonella), Enterococcus faecialis (E. faec.), Staphylococcus aureus (S. aur.) and Pseudomonas aeruginosa (P. aeru.). One hundred and fifty μl of the test bacteria were incubated in the presence of either hi3/17, f88 unselected phage display library in sBHI broth (supplemented with 10 μg/mL heme and NAD+) or control sBHI at 37° C. The next day, the optical densities of the bacterial cultures were evaluated by direct measurement of the optical densities at OD630 nm. Dilutions of the bacteria were incubated on sBHI agar plates to determine the total number of colonies per well.

For assay [5], the system named is Staphylococcus aureus. The description is as above. In kind it is cell-based. As to conditions: FIG. 4. As for the experimental part:
as §1

Assay [6] relates to Proteus. Described as above. It counts as cell-based, Proteus mirabilis. The following applies: FIG. 4. As for the experimental part: as §1
Assay [7] relates to Proteus. As to the kind of experiment: Binding to bacteria via ELISA. Set-up: species or system Proteus mirabilis.

As to KQRTSIRATEGCLPS [hi3/17], the “effect on cell membrane integrity of NTHi” value in assay [1] is on record as “altered the cell membrane integrity”. The “binding via ELISA” value in assay [2] is “binding being detectable”. Moreover, in assay [3], the MIC is listed as roughly 1e10 virions per μl, the “bactericidal activity against Int-1” value was “bactericidal”, the “greater antimicrobial activity towards Int-1 compared with Group 2 phage displayed peptides” value is given as “over 5 fold” and the “MIC concentration resulting in no bacterial growth” value was 3.64×10^9 virions. The “antimicrobial activity against Enterococcus faecialis” value in assay [4] was “no activity”. Moreover, the “inhibition of growth of Staphylococcus aureus” value in assay [5] is “completely inhibit the growth”. The “antimicrobial activity against Proteus” value in assay [6] was “no activity”. Also, the “binding via ELISA” value in assay [7] is given as “binding being detectable”.

For the sequence VVFLSSRNSAVFTDF [fUSE5/2], in assay [1], the “effect on cell membrane integrity of NTHi” value is reported as “altered the cell membrane integrity”. Besides, in assay [3], the “bactericidal activity against Int-1” value was “bactericidal” and the “MIC concentration resulting in no bacterial growth” value is reported as 2.4×10^10 virions.
